{"source": "patent US10561657B2", "about": "“Pyrrolopyrimidine compound” (CENTAURUS BIOPHARMA CO., LTD., priority 2014, dated 2020)", "key": {"[1]": {"assay": "Pharmacokinetic assay in adult female SD rats (30 mg/kg oral)", "format": "in vivo", "details": "female, Sprague-Dawley, rat, plasma, po, 30 mg/kg"}, "Ba/F3-JAK2V617F tumor": {"tested_on": "Ba/F3-JAK2V617F tumor", "assay": "Efficacy in mouse subcutaneous xenograft tumor model", "format": "in vivo, Balb/c nude mice", "details": "for TGI (%) 3 d: day 3; for TGI (%) 7 d: day 7; for TGI (%) 10 d: day 10; for TGI (%) 14 d: day 14", "method": "3. Assay for Efficacy in Mouse Subcutaneous Xenograft Tumor Model SPF grade Balb/c nude mice are female and 5-6 weeks old. 0.1 mL of the suspension of Ba/F3-JAK2V617F cells in serum-free culture medium (containing 1×10^7 cells, 50% MatriGel) was subcutaneously injected into right flank of each mouse. When the average tumor volume reached about 500 mm^3, the tumor-bearing mice were sacrificed. The tumor tissues were aseptically picked up, and cut into small pieces, which were subcutaneously implanted into both flanks of Balb/c nude mice. When the average tumor volume reached about 100 mm^3, each mouse was marked according to serial numbers, and their tumor sizes and body weights were measured, respectively. These mice were randomly allocated from small to large in terms of tumor volume, and each group of animals was appropriately adjusted to make the average body weights of the groups in a same level. […] The administration was started on the day of allocation, twice per day for 14 days. During the administration, the tumor volumes and body weights were measured twice per week. The mice were sacrificed at the end of the experiment, and the spleen was isolated and weighted. During the experiment, the maximum long diameter (L) and the maximum transverse diameter in the vertical direction (W) of the tumor were measured to calculate the tumor volume (V) according to V (mm^3)=L×W^2/2. […] T0 represents the average tumor volume of the treatment group when being allocated; Vt represents the average tumor volume measured every time in the control group; V0 represents the average tumor volume of the control group when being allocated."}, "[2]": {"target": "JAK2 kinase (V617F mutant type, JAK2^V617F) (Homo sapiens (Human), UniProt O60674, V617F)", "sequence (O60674 whole entry V617F)": "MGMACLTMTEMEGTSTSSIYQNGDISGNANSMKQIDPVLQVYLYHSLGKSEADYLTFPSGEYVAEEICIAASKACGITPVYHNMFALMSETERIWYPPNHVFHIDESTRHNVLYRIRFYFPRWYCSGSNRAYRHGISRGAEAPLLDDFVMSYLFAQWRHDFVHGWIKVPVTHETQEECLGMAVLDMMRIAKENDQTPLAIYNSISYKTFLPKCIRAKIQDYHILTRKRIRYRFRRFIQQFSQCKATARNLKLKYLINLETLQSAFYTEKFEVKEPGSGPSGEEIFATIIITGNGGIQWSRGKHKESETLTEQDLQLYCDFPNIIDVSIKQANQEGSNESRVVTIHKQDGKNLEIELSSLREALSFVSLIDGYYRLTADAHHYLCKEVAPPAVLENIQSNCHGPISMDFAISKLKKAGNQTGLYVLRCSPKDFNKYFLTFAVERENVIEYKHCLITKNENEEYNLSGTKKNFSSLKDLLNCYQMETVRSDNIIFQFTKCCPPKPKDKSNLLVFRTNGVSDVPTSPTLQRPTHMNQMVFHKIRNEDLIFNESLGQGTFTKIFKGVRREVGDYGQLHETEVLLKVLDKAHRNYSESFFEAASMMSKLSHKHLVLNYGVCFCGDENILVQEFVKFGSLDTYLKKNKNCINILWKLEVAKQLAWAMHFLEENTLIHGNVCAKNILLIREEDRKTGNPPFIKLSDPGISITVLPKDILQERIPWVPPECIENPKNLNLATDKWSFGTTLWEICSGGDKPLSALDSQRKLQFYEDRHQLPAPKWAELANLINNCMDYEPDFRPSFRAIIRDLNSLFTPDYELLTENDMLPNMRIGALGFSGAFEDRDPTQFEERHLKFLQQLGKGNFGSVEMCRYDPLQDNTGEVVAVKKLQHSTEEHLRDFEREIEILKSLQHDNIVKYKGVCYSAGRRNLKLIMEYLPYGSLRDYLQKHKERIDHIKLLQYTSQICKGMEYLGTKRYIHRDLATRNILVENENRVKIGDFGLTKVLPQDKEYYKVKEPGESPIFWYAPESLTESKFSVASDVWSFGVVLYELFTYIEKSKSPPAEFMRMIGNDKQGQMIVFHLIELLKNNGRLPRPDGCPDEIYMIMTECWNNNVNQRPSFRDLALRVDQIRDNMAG", "assay": "HTRF assay for enzymatic activity (IC50), JAK2 V617F mutant type", "format": "biochemical", "details": "ATP at Km, 120 min, 23 °C", "method": "(§1) 1. Assay for Enzymatic Activity (IC50) of Compounds\n(§2) A testing platform for kinase activity of JAK2 (wild type and V617F mutant type) was established based on Homogeneous Time-Resolved Fluorescence (HTRF) assay, and the activities of the compounds were tested using the platform. The compounds were subjected to three-fold gradient dilutions with 100% DMSO with a starting concentration of 1 mM (11 dilutions in total). 4 μL of each dilution was added to 96 μL of reaction buffer (50 mM HEPES, pH 7.4, 10 mM MgCl2, 1 mM EGTA, 0.01% Tween-20, 0.005% BAS, 2 mM DTT) and mixed homogeneously. […] The mixture was mixed homogeneously by centrifugation. […] The plate was incubated in the incubator for 1 hr, and then the fluorescence values were read on Envision (available from PerkinElmer). […] The enzymatic activity was representd by a ratio of the two readout at the two emission wavelengths. The enzymatic activity for each compound was tested at 11 concentrations, and IC50 values of the compounds were obtained by calculating the data using GraFit6.0 software (Erithacus Software). 2. Assay for cell proliferation activity (IC50) of compounds"}, "[3]": {"target": "JAK2 kinase (wild type, JAK2^WT) (Homo sapiens (Human), UniProt O60674)", "sequence (O60674 whole entry)": "as the sequence (O60674 whole entry V617F) above, with F617V counted along it", "assay": "HTRF assay for enzymatic activity (IC50), JAK2 wild type", "format": "biochemical", "details": "ATP at Km, 120 min, 23 °C", "method": "as §1, §2"}, "HEL (JAK2^V617F) cells": {"tested_on": "HEL (JAK2^V617F) cells", "assay": "Cell proliferation assay (CellTiter-Blue, 72 hrs)", "format": "cell-based", "details": "Homo sapiens; 72 hrs of treatment", "quoted_text": "In the tests of compounds, HEL cells were plated in a 96-well plate (Corning) at a density of 3000 cells/195 μL per well. The compounds were subjected to three-fold gradient dilutions with a starting concentration of 10 mM (11 dilutions in total). […] 5 μL of the resulting liquid was then added to 195 μL of the cell culture medium (the final concentration in DMSO is 0.1%, v/v). After 72 hrs of treatment, 35 μL of CellTiter-Blue® (available from Promega) was added. The fluorescent signals were detected on Flex Station3 (Molecular Devices) in accordance with the protocols described in the instructions. The IC50 values of the compounds in inhibiting cell proliferation were calculated using GraphPad Prism 5.0."}, "in vivo": {"assay": "in vivo", "details": "male, Sprague-Dawley, rat, plasma, po, 5 mg/kg", "quoted_text": "The rats were allocated with three rats per group, and separately orally administered the suspension of a sample to be tested (5 mg/kg or 15 mg/kg) by single intragastric administration. […] After the animals were narcotized with isoflurane using an anaesthesia machine for small animals, 0.3 mL of whole blood was drawn from fundus venous plexus, and placed in a heparin anticoagulant tube. At 4° C., the sample was centrifuged at 4000 rpm for 5 min, and plasma was transferred to a centrifuge tube and preserved at −80° C. until the analysis was started. The sample in plasma was extracted by the protein precipitation method, and the extract liquid was analyzed by LC/MS/MS."}, "[4]": {"details": "0.5% MC, FDA pharmacology review, cited from earlier work"}, "[5]": {"details": "dogs, male, FDA pharmacology review, cited from earlier work"}, "[6]": {"details": "rats, 30 mg/kg PO; FDA pharmacology review; cited from earlier work"}}, "note": "Counter-ions that a name gives are not always drawn. Like-named read-outs stand apart in the source and are kept apart here.", "data": [{"smiles": "N#CC[C@H](C1CCCC1)n1cc(-c2ncnc3[nH]ccc23)c(N)n1", "note": "[(3R)-3-[3-amino-4-(7H-pyrrolo[2,3-d]pyrimidin-4-yl)-1H-pyrazol-1-yl]-3-cyclopentylpropanenitrile hydrochloride]", "values": [{"measurement": "half-life", "setting": "[1]", "result": 117, "unit": "min"}, {"measurement": "AUC(0-inf)", "setting": "[1]; read-out: AUCINFobs", "result": 5760, "unit": "ng·h/mL"}, {"measurement": "Cmax", "setting": "[1]; read-out: Cmax", "result": 2350, "unit": "ng/mL"}, {"measurement": "Tmax", "setting": "[1]; read-out: Tmax", "result": 19.8, "unit": "min"}, {"measurement": "TGI (%) 3 d", "setting": "Ba/F3-JAK2V617F tumor; 25 mg/kg PO BID", "result": 45.45, "unit": "%"}, {"measurement": "TGI (%) 7 d", "setting": "Ba/F3-JAK2V617F tumor; 25 mg/kg PO BID", "result": 16.85, "unit": "%"}, {"measurement": "TGI (%) 10 d", "setting": "Ba/F3-JAK2V617F tumor; 25 mg/kg PO BID", "result": 54.49, "unit": "%"}, {"measurement": "TGI (%) 14 d", "setting": "Ba/F3-JAK2V617F tumor; 25 mg/kg PO BID", "result": 40.74, "unit": "%"}, {"measurement": "TGI (%) 3 d", "setting": "Ba/F3-JAK2V617F tumor; 50 mg/kg PO BID", "result": 41.77, "unit": "%"}, {"measurement": "TGI (%) 7 d", "setting": "Ba/F3-JAK2V617F tumor; 50 mg/kg PO BID", "result": 43.60, "unit": "%"}, {"measurement": "TGI (%) 10 d", "setting": "Ba/F3-JAK2V617F tumor; 50 mg/kg PO BID", "result": 65.19, "unit": "%"}, {"measurement": "TGI (%) 14 d", "setting": "Ba/F3-JAK2V617F tumor; 50 mg/kg PO BID, hydrochloride", "result": 68.40, "unit": "%"}, {"measurement": "TGI (%) 14 d", "setting": "Ba/F3-JAK2V617F tumor; 50 mg/kg PO BID, listed as hydrochloride of the compound of Example 5, hydrochloride", "result": 68.4, "unit": "%"}, {"measurement": "TGI (%) 3 d", "setting": "Ba/F3-JAK2V617F tumor; 100 mg/kg PO BID", "result": 91.62, "unit": "%"}, {"measurement": "TGI (%) 7 d", "setting": "Ba/F3-JAK2V617F tumor; 100 mg/kg PO BID", "result": 79.76, "unit": "%"}, {"measurement": "TGI (%) 10 d", "setting": "Ba/F3-JAK2V617F tumor; 100 mg/kg PO BID", "result": 89.37, "unit": "%"}, {"measurement": "TGI (%) 14 d", "setting": "Ba/F3-JAK2V617F tumor; 100 mg/kg PO BID, hydrochloride", "result": 85.76, "unit": "%"}, {"measurement": "TGI (%) 14 d", "setting": "Ba/F3-JAK2V617F tumor; 100 mg/kg PO BID, listed as hydrochloride of the compound of Example 5, hydrochloride", "result": 85.8, "unit": "%"}, {"measurement": "inhibitory effect on Ba/F3-JAK2V617F tumor growth", "setting": "Ba/F3-JAK2V617F tumor; 25, 50, 100 mg/kg PO BID for 14 days", "result": "dose-dependent inhibitory effect"}]}, {"smiles": "N#CCC(C1CCCC1)n1cc(-c2ncnc3[nH]ccc23)c(N)n1", "note": "(stereo not drawn) [Example 1, 3-[3-amino-4-(7H-pyrrolo[2,3-d]pyrimidin-4-yl)-1H-pyrazol-1-yl]-3-cyclopentylpropanenitrile]", "values": [{"measurement": "IC50", "setting": "[2]", "result": "< 20", "unit": "nM"}, {"measurement": "IC50", "setting": "[3]", "result": "< 20", "unit": "nM"}]}, {"smiles": "CCNc1nn(C(CC#N)C2CCCC2)cc1-c1ncnc2[nH]ccc12", "note": "(stereo not drawn) [Example 7, 3-[3-ethylamino-4-(7H-pyrrolo[2,3-d]pyrimidin-4-yl)-1H-pyrazol-1-yl]-3-cyclopentylpropanenitrile]", "values": [{"measurement": "IC50", "setting": "HEL (JAK2^V617F) cells", "result": "< 200", "unit": "nM"}, {"measurement": "AUC(0-inf)", "setting": "in vivo", "result": 20, "unit": "ng·h/mL"}, {"measurement": "Cmax", "setting": "in vivo", "result": 13.5, "unit": "ng/mL"}, {"measurement": "Tmax", "setting": "in vivo", "result": 19.8, "unit": "min"}, {"measurement": "half-life", "setting": "in vivo", "result": 30, "unit": "min"}, {"measurement": "IC50", "setting": "[2]", "result": "< 20", "unit": "nM"}, {"measurement": "IC50", "setting": "[3]", "result": "< 20", "unit": "nM"}]}, {"smiles": "N#CC[C@H](C1CCCC1)n1cc(-c2ncnc3[nH]ccc23)cn1", "note": "[Ruxolitinib Phosphate]", "values": [{"measurement": "AUCINF—obs", "setting": "[4]; female rats, oral 15 mg/kg", "result": 336, "unit": "ng·h/mL"}, {"measurement": "Cmax", "setting": "[4]; female rats, oral 15 mg/kg", "result": 267, "unit": "ng/mL"}, {"measurement": "T1/2", "setting": "[4]; female rats, oral 15 mg/kg", "result": 119, "unit": "min"}, {"measurement": "Tmax", "setting": "[4]; female rats, oral 15 mg/kg", "result": 30, "unit": "min"}, {"measurement": "AUCINF—obs", "setting": "[4]; male rats, oral 5 mg/kg", "result": 3.33, "unit": "ng·h/mL"}, {"measurement": "Cmax", "setting": "[4]; male rats, oral 5 mg/kg", "result": 4.69, "unit": "ng/mL"}, {"measurement": "Tmax", "setting": "[4]; male rats, oral 5 mg/kg", "result": 30, "unit": "min"}]}, {"smiles": "N#CC[C@H](C1CCCC1)n1cc(-c2ncnc3[nH]ccc23)cn1", "note": "[Ruxolitinib]", "values": [{"measurement": "AUCINF—obs", "setting": "[5]; IV 5 mg/kg", "result": 13776, "unit": "ng·h/mL"}, {"measurement": "Cl_obs", "setting": "[5]; IV 5 mg/kg", "result": 8, "unit": "mL/min/kg"}, {"measurement": "Vss_obs", "setting": "[5]; IV 5 mg/kg", "result": 1.1, "unit": "L/kg"}, {"measurement": "t1/2", "setting": "[5]; IV 5 mg/kg", "result": 150, "unit": "min"}, {"measurement": "AUCINF—obs", "setting": "[5]; PO 10 mg/kg", "result": 15716, "unit": "ng·h/mL"}, {"measurement": "Cmax", "setting": "[5]; PO 10 mg/kg", "result": 3519, "unit": "ng/mL"}, {"measurement": "F", "setting": "[5]; PO 10 mg/kg", "result": 57, "unit": "%"}, {"measurement": "Tmax", "setting": "[5]; PO 10 mg/kg", "result": 120, "unit": "min"}, {"measurement": "t1/2", "setting": "[5]; PO 10 mg/kg", "result": 132, "unit": "min"}, {"measurement": "AUCINFobs", "setting": "[6]", "result": 1345, "unit": "ng·h/mL"}, {"measurement": "Cmax", "setting": "[6]", "result": 1143, "unit": "ng/mL"}, {"measurement": "Tmax", "setting": "[6]", "result": 30, "unit": "min"}, {"measurement": "t1/2", "setting": "[6]", "result": 73.2, "unit": "min"}]}]}
